Several values for one entry are separate records, joined by “and”; a condition that tells them apart may be missing. Equal entries are not always repeated.
Test system: 439559-082-T-J2-PDC spheroid viability
Experiment: Anticancer human tumor 439559-082-T-J2-PDC patient-derived colon adenocarcinoma cell line growth inhibition [POLQ]
Settings: spheroids with HUVEC and MSC; for viability, T/C: stronger effect = lower value
Protocol: Multicellular complex tumor spheroid response to Polymerase (POL) inhibitors (novobiocin, ART-558, RP6685) in combination with a variety of drugs and investigational agents in selected tumor cell lines
The POL inhibitors (novobiocin, ART-558, and RP6685) were evaluated both individually and in combination with standard of care and investigational anticancer small molecules within a complex spheroid model of solid tumors. . Complex spheroids include a stromal component modeled by human endothelial cells (HUVEC) and fibroblasts modeled by human mesenchymal stem cells (MSCs). The concentration ranges selected for each drug and investigational agent were based upon clinically achievable concentrations if the clinical Cmax of the agent was known.
Compounds. The drugs and investigational agents: novobiocin (NSC847541), ART-558 (NSC835418), RP-6685 (NSC848927), peposertib (NSC802822), ceralasertib (NSC780249), elimusertib (NSC800525), camonsertib (NSC841442), AZD-1390 (NSC803789), olaparib (NSC753686), talazoparib (NSC767125), rucaparib (NSC756644), sotorasib (NSC818433), MRTX-1133 (NSC836407), SN-38 (NSC673596), topotecan (NSC609699), epotoside (NSC141540), doxorubicin (NSC123127), gemcitabine (NSC613327), 5-fluorouracil (NSC19893), paclitaxel (NSC125973), vemurafenib (NSC761431), MSA-2 (NSC828583), SN-011 (NSC837082), adavosertib (NSC754352), prexasertib (NSC758257), carboplatin (NSC241240) and oxaliplatin (NSC266046), were obtained from the National Cancer Institute (NCI) Developmental Therapeutics Program Chemical Repository (21). The FDA-approved anticancer drug set is available from the Developmental Therapeutics Program at https://dtp.cancer.gov/organization/dscb/obtaining/. […] The stock solutions were prepared in dimethyl sulfoxide (DMSO, Sigma-Aldrich, St. Louis, MO, cat. D2650), except for the platinum compounds which were prepared in saline (Quality Biological, Gaithersburg, MD, cat. 114-055-101), at 800-fold the tested concentration and stored at -70 degrees C prior to their use. All drugs and investigational agents were tested over a range starting from a high concentration at or near the clinical Cmax and decreasing in half-log increments. If the clinical Cmax for an agent had not been determined, the highest concentration tested was 10 microM, except for SN-38, which was tested at a high concentration of 1 microM.
Cell Culture. All cells were maintained in an incubator at 37 degrees C and 5% CO2 with 95% humidity. The PDC lines were cultured according to standard operating procedures established by the NCI PDMR (https://pdmr.cancer.gov). Table 3 of the manuscript, lists the cell lines along with the number of the three cell types plated to form the mct-spheroids and media for tumor cell growth. After thawing, all PDC lines, except 997537-175-T-J1-PDC and 415267-285-R-J2-PDC, were cultured in Matrigel-coated flasks prepared with a working solution of 1X Ham's F-12 nutrient mix, without supplementation (Thermo Fisher Scientific, cat. 11765054), 100 U/mL penicillin-streptomycin (Thermo Fisher Scientific, cat. 15140122), and 2.5% Matrigel (Corning Inc., Corning, NY, cat. 354248) for the first three passages. The two PDC lines 997537-175-T-J1-PDC and 415267-285-R-J2-PDC were cultured on uncoated flasks. The 857933-349-R-J2-PDC line was cultured in 6C/Colon 1B media containing advanced DMEM/F-12 (Thermo Fisher Scientific, cat. 12634028), 10 mM HEPES (Thermo Fisher Scientific, cat. 15630080), 1X GlutaMAX supplement (Thermo Fisher Scientific, cat. 35050061), 0.1 mg/mL primocin (InvivoGen, San Diego, CA, cat. ant-pm-2), 10% defined fetal bovine serum, heat inactivated (HyClone Laboratories Inc., Logan, UT, cat. SH30070.03HI), 50% L-WRN conditioned media (ATCC, cat. CRL-3276), 1.25 mM N-Acetyl-L-cysteine (Sigma-Aldrich, cat. A9165), 10 mM nicotinamide (Sigma-Aldrich, cat. N0636), 1X B-27 supplement (Thermo Fisher Scientific, cat. 17504044), 1X N-2 supplement (Thermo Fisher Scientific, cat. […]

[1] = compound alone, run of 11/27/2023
[2] = compound alone, run of 12/05/2023
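Note: spheroids exposed to compounds for seven days before readout.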
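Throughout, for viability, T/C: 100% = DMSO vehicle control viability.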

Row | Compound | viability, T/C (compound 0.0316 µM) | viability, T/C (compound 0.1 µM) | viability, T/C (compound 0.316 µM) | viability, T/C (compound 1 µM) | viability, T/C (compound 3.16 µM) | viability, T/C (compound 10 µM) | IC50 [1] | IC50 (curve of compound) | viability, T/C (compound 0.00316 µM) | viability, T/C (compound 0.01 µM) | IC50 [2] | viability, T/C (compound 0.000316 µM) | viability, T/C (compound 0.001 µM)
1 | COC1C(OC(N)=O)C(O)C(Oc2ccc3c(O)c(NC(=O)c4ccc(O)c(CC=C(C)C)c4)c(=O)oc3c2C)OC1(C)C (stereo unspecified) | 102% [middle of 13 runs] | 96.7% [middle of 13 runs] | 101% [middle of 13 runs] | 101% [middle of 13 runs] | 100% [middle of 12 runs] | 105% [middle of 13 runs] | > 10 µM | – | – | – | – | – | –
2 | COc1cc(C2c3cc4c(cc3C(OC3OC5COC(C)OC5C(O)C3O)C3COC(=O)C23)OCO4)cc(OC)c1O (stereo unspecified) | 92.4% and 99.3% and 94.1% | 95.6% and 95.3% and 97.8% | 92.7% and 82% and 98.2% | 90.5% and 88.4% and 95.4% | 82.1% and 81.8% and 89.5% | 73.7% and 72.7% and 70.3% | – | > 10 µM | – | – | – | – | –
3 | COc1cc2cc(C(=O)CCC(=O)O)sc2cc1OC | 109% and 97.5% and 94.4% | 93.8% and 82% and 103% | 89.1% and 98.4% and 98.9% | 95.2% and 100% and 99.7% | 95.2% and 91.9% and 97% | 87.7% and 100% (2×) | – | > 10 µM | – | – | – | – | –
4 | COc1ccc([C@@H](O)c2cc(-c3ncnc4cc(N5CCOCC5)ccc34)c(F)cc2Cl)nn1 | 94.6% and 84.4% and 97.3% | 98.2% and 88.9% and 93% | 93.3% and 85.8% and 90.6% | 103% and 90.1% and 94.2% | 89.3% and 96.5% and 85.9% | 82.2% (2×) and 75.2% | – | > 10 µM | – | – | – | – | –
5 | COc1cccc(OCCCN)c1-c1cc(Nc2cnc(C#N)cn2)n[nH]1 | 73.2% and 77.3% and 77.8% | 55.3% and 76.4% and 78.8% | 30.3% and 45.7% and 50.2% | 18.1% and 20.9% and 23% | – | – | – | 0.118 µM and 0.296 µM and 0.345 µM | 99.5% and 95.1% and 102% | 88.5% and 89.2% and 81.1% | – | – | –
6 | COc1cccc2c1C(=O)c1c(O)c3c(c(O)c1C2=O)CC(O)(C(=O)CO)CC3OC1CC(N)C(O)C(C)O1 (stereo unspecified) | 94.9% and 90.3% and 99.1% | 86.6% and 79.9% and 96.6% | 79.8% and 66.8% and 88% | 72.6% and 63.7% and 70.9% | 65% and 58.3% and 60.4% | 52.5% and 69.4% and 49.1% | – | > 10 µM and 9.81 µM | – | – | – | – | –
7 | Cc1cccc(N(C)C(=O)C2C(O)CCN2c2nc(C)cc(C(F)(F)F)c2C#N)c1 (stereo unspecified) | 98.9% [middle of 12 runs] | 95.7% [middle of 12 runs] | 97.4% [middle of 12 runs] | 98.2% [middle of 12 runs] | 97% [middle of 12 runs] | 101% [middle of 12 runs] | > 10 µM | – | – | – | > 10 µM | – | –
8 | Cn1ncnc1[C@H]1c2n[nH]c(=O)c3cc(F)cc(c23)N[C@@H]1c1ccc(F)cc1 | 97.2% and 98.5% and 107% | 97.3% and 95.7% and 88.3% | – | – | – | – | – | > 0.1 µM | 94.4% and 97.9% and 97.8% | 96.7% and 93.2% and 100% | – | 101% and 102% and 94.5% | 100% (2×) and 86.2%
9 | Nc1ccc(C#CCN(C(=O)Cc2ncc(C(F)(F)F)cc2C(F)(F)F)c2ccc(F)cc2)nn1 | 96.1% [middle of 13 runs] | 97.8% [middle of 13 runs] | 96% [middle of 13 runs] | 100% [middle of 13 runs] | 99.5% [middle of 13 runs] | – | – | – | – | – | > 10 µM | – | –
10 | Nc1ccn(C2OC(CO)C(O)C2(F)F)c(=O)n1 (stereo unspecified) | 84.5% and 77.1% and 81% | 68.2% and 74.4% and 72% | 58.2% and 59% and 56.6% | 49.8% and 43.5% and 39.9% | 36.5% and 35.1% and 30.8% | 31.1% and 26.7% and 27.3% | – | 0.767 µM and 0.656 µM and 0.496 µM | – | – | – | – | –
11 | O=C(Nc1ccc(O)c(NS(=O)(=O)c2ccc(F)cc2)c1)c1ccc(-c2ccccc2)cc1 | 91% and 95.6% and 94.9% | 95.3% and 90.8% and 94.3% | 87.2% and 100% and 98.6% | 97.2% and 96.6% and 96.2% | 112% and 107% and 106% | 105% and 102% and 101% | – | > 10 µM | – | – | – | – | –
12 | O=C(c1cc(Cc2n[nH]c(=O)c3ccccc23)ccc1F)N1CCN(C(=O)C2CC2)CC1 | 88.1% and 67.6% and 87.6% | – | – | – | – | – | – | > 10 µM | – | – | – | – | –
13 | O=c1[nH]cc(F)c(=O)[nH]1 | 94.6% and 117% and 96.9% | 95% and 114% and 94.2% | 83.6% and 86.3% and 81% | 76.2% and 90.7% and 73% | 71.1% and 87% and 72.8% | 68.4% and 78.9% and 71.5% | – | > 10 µM | – | – | – | – | –

Source: PubChem BioAssay AID1963841 (Molecular Pharmacology Branch, DTP, NCI, 2024)
